Results reported in patent US7375078B2, “Heterocyclic self-immolative linkers and conjugates” (Genentech, Inc., priority 2004, dated 2008).

Target: T1, cathepsin B (Homo sapiens, UniProt P07858)
T1 construct: purchased CalBiochem
Assay: Cathepsin B cleavage of 7A and 7B
Format: biochemical
Settings: substrate 100 μM, activated cathepsin B 100 nM, 50 mM sodium acetate buffer pH 5, 37° C., 16 hrs, presence or absence of 1 mM cysteine; HPLC
Method: Model compounds with a cleavable peptide unit and a heterocyclic self-immolative moiety, and conjugates of Formula I can be tested for stability and kinetics of enzymatic hydrolysis by the methods of de Groot, et al (1999) J. Med. Chem. 42(25):5277-5283.
FIG. 2 is a schematic representation of the cleavage mechanism.
A cathepsin B (CalBiochem) stock solution at 28.4 μM was diluted to 1 μM in 50 mM sodium acetate buffer pH 7.5, containing 2 mM DTT. Activation was carried out at 37° C. for 15 minutes.
Substrate compounds 7A and 7B were diluted to 100 μM in 50 mM sodium acetate buffer pH 5. Activated cathepsin B was added to a final concentration of 100 nM and the cleavage reaction was carried out at 37° C. for 16 hrs in the presence or absence of 1 mM cysteine.
Reversed-phase separation of cleavage products was carried out using an Agilent 1100 HPLC system. UV signal was monitored at 214, 254 and 380 nm. A Poroshell 300SB-C18 column (No.660750-902) from Agilent was used. Mobile phases A and B contained 0.05% TFA aqueous solution and CH3CN containing 0.05% TFA, respectively. […] The cleavage product of 4-nitroaniline was monitored by its distinct absorbance at 380 nm in the void volume. […]

Row | SMILES | cleavage reaction (disappearance of substrate, release of 4-nitroaniline)
1 | CC(C)[C@@H](NC(=O)CCCCCN1C(=O)C=CC1=O)C(=O)N[C@H](CCCNC(N)=O)C(=O)Nc1nc(C(F)(F)F)c(COC(=O)Nc2ccc([N+](=O)[O-])cc2)s1 [Compound 7B] | complete
2 | CC(C)[C@@H](NC(=O)OC(C)(C)C)C(=O)N[C@H](CCCNC(N)=O)C(=O)Nc1nc(C(F)(F)F)c(COC(=O)Nc2ccc([N+](=O)[O-])cc2)s1 [Compound 7A] | complete
